Results published in US11266642B2, “Small molecule inhibitors of HLA-DR3 binding for treating autoimmune thyroiditis” (ICAHN SCHOOL OF MEDICINE AT MOUNT SINAI, priority 2015, dated 2022).

Legend:
[1] = system: HLA-DR2; test: MBP87-99 binding to DR2 expressing cells, flow cytometry (specificity control); type: cell-based, human; details: biotinylated MBP87-99, 24 hours
[2] = biological target: T1, HLA-DRβ1-Arg74 (Homo sapiens, UniProt P01903+P01911, A100K/A102G/A103R/A169T/F55Y/I96L/K41T/L162R/M171V/P40S/Q125H/Q178H/Q39Y/R42S/S66N/T106N/W38E/Y61H); test: In Vitro Arg74 Blocking Test (DELFIA immunoassay, APO peptide binding); details: 10 μM biotinylated APO; 48 h at 37° C.; serial dilution 0.2 to 0.0125 mM; read-out: approximate IC50, inhibition of APO binding to HLA-DRβ1-Arg74
T1 construct: extracellular portion of the DRB1*0301 β chain fused to the coiled coil region; coiled coil region of the basic leucine zipper domain of JunB; TEV protease cutting site (internal)
Excerpt: HLA-DRβ1-Arg74 protein (containing arginine at position 74 on the β chain) was produced using the baculovirus system. We designed 2 constructs for both the α and β chains of HLA-DR. The β-chain construct contained the extracellular portion of the DRB1*0301 β chain fused to the coiled coil region of the basic Leucine zipper domain of JunB, and the α chain construct contained the extracellular portion of the DR α chain fused to the coiled coil region to the basic Leucine zipper domain of Fos. A TEV protease cutting site was introduced in each chain to allow removal of the dimerization motif. The JunB and Fos dimerization motifs allowed the protein to dimerize and form the final HLA-DRβ1-Arg74 protein. […]
Test compounds were dissolved in 100% DMSO and tested for their ability to bind to the HLA-DRβ1-Arg74 pocket and block it from binding the peptide using an immunoassay we developed for this purpose, which will be referred to as the “In Vitro Arg74 Blocking Test”. […] Time-resolved fluorescence was measured using the BMG reader (BMG Labtech, Cary, N.C.). […] Percent inhibition was calculated by the following formula: 100−100×[HLA-DRβ1-Arg74-APO-small molecule/HLA-DRβ1-Arg74-APO (no small molecule)])
To gauge the potency of the small molecules we determined the percent inhibition at decreasing concentrations of test molecules. […]

[3] = system: T-cell proliferative responses to hTg or Tg.2098; test: In vivo PO administration in hTg-immunized NOD-DR3 mice (EAT), T-cell proliferation CFSE assay; parameters: species or system mouse; details: PO gavage 250 μg on days -2, -1, 5, 6, sacrifice day 21
Excerpt: Mice transgenic for DRB1*0301 were originally generated by G. J Hämmerling and co-workers as previously described [Strauss et al. Immunogenetics 40, 104-108 (1994)]. Briefly, the DR3 (DRA1*0101/DRB1*0301) transgenes were inserted into (C57BL/6×DBA/2) F1 embryos and the progeny were back-crossed to B10.Q mice. The DR3 mice were crossed with I-Aβ knockouts (C57BL/6×129) to obtain mice lacking murine MHC class II and expressing human DR3. The transgenic mouse line was maintained by intercrossing. The background non-MHC genes in the DR3 transgenic line was 50% C57BL/10 genes and 50% contribution from CBA, C57BL/6, and 129 genes. These mice were then back-crossed into NOD background to produce the NOD-DR3 mice [Flynn et al. J Autoimmun, 17, 7-15 (2001)]. The transgene was confirmed to be HLA-DRβ1-Arg74 positive. Mice were bred in a pathogen-free facility (Icahn School of Medicine at Mount Sinai, New York, N.Y.), and expression of HLA-DR3 was tested by PCR using DR3-specific primers: forward primer 5′ CGCTTCGACAGCGAC 3′ (SEQ ID NO:4) and reverse primer 5′ GACAAATCCACACTCCAC 3′ (SEQ ID NO:5). […]
Three female NOD-DR3 mice (6 to 10 weeks old) were fed with 250 μg of Compound Ia PO using gavage on day (−2) and day (−1), followed by SQ immunization of hTg mixed with CFA on day 0. […] Stimulation index was calculated as before.

T1 sequence (P01903 26-216 limits assumed, other chains not shown): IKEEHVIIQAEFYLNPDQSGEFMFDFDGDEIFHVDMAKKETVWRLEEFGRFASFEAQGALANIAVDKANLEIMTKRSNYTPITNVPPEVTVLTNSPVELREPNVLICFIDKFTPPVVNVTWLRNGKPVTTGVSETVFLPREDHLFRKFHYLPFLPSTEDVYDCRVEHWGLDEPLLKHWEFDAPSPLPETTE

IC50 [2]: ~80 µM
Compound: COc1ccc2cc1Oc1ccc(cc1)C[C@H]1c3c(cc4c(c3Oc3cc5c(cc3OC)CCN(C)[C@@H]5C2)OCO4)CCN1C [Compound Ia, cepharanthine]
block of MBP87-99 binding to DR2 [1]: did not block
Stimulation index, T-cell stimulation in response to hTg ([3]; vehicle 1.8 ± 0.2, p=0.0285): 1.0 ± 0.2
Stimulation index, T-cell stimulation in response to Tg.2098 ([3]; vehicle 1.9 ± 0.3, p=0.0147): 0.9 ± 0.1
